Data set [1] can be described thus: PK in mice after iv injection of liposomal NA112: plasma. The following applies: for concentration at 0.0167 hr / concentration at 0.0833 hr / concentration at 0.25 hr / concentration at 0.5 hr / concentration at 1 hr / concentration at 2 hr / concentration at 4 hr / concentration at 8 hr / concentration at 16 hr / concentration at 24 hr: iv, 10 mg/kg, mice iv 10 mg/kg liposomes. The data set is classed as in vivo. Here is the method:
NA112 was prepared in liposomes at a concentration of 1.5 mg/ml. Mice were injected in the tail vein with 200 μl of NA112 in liposomes (corresponding to a dose of 10 mg/kg) and were sacrificed at the following time-points: 1, 5, 15, 30 min, 1, 2, 4, 8, 16 and 24 h. Blood was collected and plasma rapidly prepared by centrifugation. Brains were also collected. NA112 in plasma and in brain homogenates was assayed with LC/Ms and the sensitivity of the assay was 1 ng/ml. Experiments were performed in duplicate (A1 and A2 in Table 3). Results were averaged for preparing the figure and calculating the half-life of NA112 in plasma and in brain.
A two-compartment model was used to analyze the data from FIG. 14. This assumes that there is a rapid distribution of the drug from the plasma to various organs, followed by a slower elimination of the drug form the plasma. […] In FIG. 16, changes in NA112 plasma concentrations fitted with the 2-compartment model. The data from FIG. 14 are fitted with the 2-compartment model equation, showing the very good fit between the predicted values and the observed values.

The target of data set [2] is T1, human calpain-1 (purified from erythrocytes, ecalpain-1) (Homo sapiens, UniProt P07384).
T1 construct: human calpain-1 (purified from erythrocytes, ecalpain-1); from tissue; host or cells: human erythrocytes
T1 sequence (P07384 1-714): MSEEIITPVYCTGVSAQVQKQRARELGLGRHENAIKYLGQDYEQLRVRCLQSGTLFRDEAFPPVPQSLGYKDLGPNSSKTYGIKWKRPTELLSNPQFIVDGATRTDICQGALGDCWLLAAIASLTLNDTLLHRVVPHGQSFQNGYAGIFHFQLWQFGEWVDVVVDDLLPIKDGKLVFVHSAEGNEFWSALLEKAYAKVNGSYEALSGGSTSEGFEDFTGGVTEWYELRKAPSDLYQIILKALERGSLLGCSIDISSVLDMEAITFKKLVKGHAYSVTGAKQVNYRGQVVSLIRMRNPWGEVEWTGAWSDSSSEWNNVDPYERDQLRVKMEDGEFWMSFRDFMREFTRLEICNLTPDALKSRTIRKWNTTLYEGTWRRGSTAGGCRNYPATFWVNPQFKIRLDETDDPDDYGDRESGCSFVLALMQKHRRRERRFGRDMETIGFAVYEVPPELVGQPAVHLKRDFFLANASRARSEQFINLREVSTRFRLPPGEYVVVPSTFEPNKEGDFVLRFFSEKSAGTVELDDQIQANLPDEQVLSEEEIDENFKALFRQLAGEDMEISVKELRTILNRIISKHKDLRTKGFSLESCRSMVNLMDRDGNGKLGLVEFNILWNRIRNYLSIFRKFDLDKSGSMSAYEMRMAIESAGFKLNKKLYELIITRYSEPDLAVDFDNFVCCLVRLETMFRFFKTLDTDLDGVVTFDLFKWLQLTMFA
T1 sequence (P04632 1-268 partner): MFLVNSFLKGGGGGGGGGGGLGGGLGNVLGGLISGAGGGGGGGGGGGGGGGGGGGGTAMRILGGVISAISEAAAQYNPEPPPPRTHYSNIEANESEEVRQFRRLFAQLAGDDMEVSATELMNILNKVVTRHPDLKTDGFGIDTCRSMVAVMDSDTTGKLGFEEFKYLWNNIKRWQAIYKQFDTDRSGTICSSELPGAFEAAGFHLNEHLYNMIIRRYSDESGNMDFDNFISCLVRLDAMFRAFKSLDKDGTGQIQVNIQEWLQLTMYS
In words: Inhibition of human calpain-1 purified from erythrocytes. The data set is classed as biochemical. Here is the method:
Various concentrations of NA112 in the liposomal formulation were incubated with human calpain-1 (purified from erythrocytes, ecalpain-1) or a recombinant human calpain-2 (hcalpain-2) and calpain activity assayed as in FIG. 1. IC50 were determined and transformed into Ki values (FIG. 10A, 10B). Values previously obtained with NA112 dissolved in DMSO are shown for comparison (FIG. 10B).
Cerebellar homogenates from wild-type (WT) or calpain-1 Knock-out (KO) mice were incubated with 20 μM calcium to activate calpain-1 or with 2 mM calcium to activate calpain-2, respectively, and increasing concentrations of NA184.
Like in NA112, there are 2 chiral centers in NA184. The inhibitory activity of the compounds NA184A (S-S isomer) and NA184B (S-R stereoisomer) against erythrocyte human calpain-1 (ecalpain-1) and recombinant human calpain-2 (hcalpain-2) were determined.

Where [3] appears, read: 2-compartmental model, mice iv 10 mg/kg in liposomes.
Setting [4] is: mouse, read-out: Plasma concentration A1.
The mark [5] stands for this setting: mouse, read-out: Plasma concentration A2.
The mark [6] stands for this setting: mouse, read-out: Plasma concentration Mean.

Read-outs that look alike come from different tables or passages of the source.

In data set [1] (setting [3]), `CCC(NC(=O)[C@H](CC(C)C)NC(=O)NCc1ccccc1)C(=O)C(=O)NCc1cc(OC)cc(OC)c1` (mixture of isomers) [NA112, (2S)-2-(3-benzylureido)-N-(1-((3,5-dimethoxybenzyl)amino)-1,2-dioxopentan-3-yl)-4-methylpentanamide] displayed an A of 28944.68 ng/mL, a B of 42.70 ng/mL, a T½α of 0.23 h and a T½β of 7.80 h. Moreover, in data set [1] (setting [3]), the α was found to be 3.01 h⁻¹ and the β is 0.09 h⁻¹. This compound gave a half-life in data set [1] (mouse, 2-compartment model, mice iv 10 mg/kg in liposomes) of 7.8 h. In addition, the AUC from zero to infinity in data set [1] (mouse, 2-compartmental model, mice iv 10 mg/kg in liposomes, read-out: AUC0-00) stood at 17000 ng·h/mL. For the same compound, in data set [1] (setting [4]), the concentration at 0.0167 hr is 45300 ng/mL, the concentration at 0.0833 hr is 116000 ng/mL, the concentration at 0.25 hr came to 2120 ng/mL and the concentration at 0.5 hr is 6760 ng/mL. For the same compound, in data set [1] (setting [4]), the concentration at 1 hr was found to be 5550 ng/mL, the concentration at 2 hr came out at 107 ng/mL, the concentration at 4 hr came out at 34.6 ng/mL and the concentration at 8 hr is 17.4 ng/mL. In addition, in data set [1] (setting [4]), the concentration at 16 hr was 10.8 ng/mL and the concentration at 24 hr amounted to 5.63 ng/mL. In data set [1] (setting [5]), the concentration at 0.0167 hr was 63500 ng/mL, the concentration at 0.0833 hr came out at 69100 ng/mL, the concentration at 0.25 hr came out at 939 ng/mL and the concentration at 0.5 hr was 432 ng/mL. Besides, in data set [1] (setting [5]), the concentration at 1 hr stood at 390 ng/mL, the concentration at 2 hr stood at 84 ng/mL, the concentration at 4 hr amounted to 30 ng/mL and the concentration at 8 hr is 20.6 ng/mL. For the same compound, in data set [1] (setting [5]), the concentration at 16 hr worked out at 9.79 ng/mL and the concentration at 24 hr turned out to be 4.67 ng/mL. Moreover, in data set [1] (setting [6]), the concentration at 0.0167 hr amounted to 54400 ng/mL, the concentration at 0.0833 hr was found to be 92300 ng/mL, the concentration at 0.25 hr was found to be 1530 ng/mL and the concentration at 0.5 hr was 3590 ng/mL. Besides, in data set [1] (setting [6]), the concentration at 1 hr amounted to 2970 ng/mL, the concentration at 2 hr worked out at 95.5 ng/mL, the concentration at 4 hr came to 32.3 ng/mL and the concentration at 8 hr turned out to be 19 ng/mL. Moreover, in data set [1] (setting [6]), the concentration at 16 hr is 10.3 ng/mL and the concentration at 24 hr was determined as 5.15 ng/mL.
In data set [2], `CCC(NC(=O)[C@H](CC(C)C)NC(=O)NCc1ccccc1)C(=O)C(=O)NCc1cccc(Cl)c1OC` (stereo partly drawn) [NA184, (2S)-2-(3-benzylureido)-N-(1-((3-chloro-2-methoxybenzyl)amino)-1,2-dioxopentan-3-yl)-4-methylpentanamide] yielded an IC50 of 543 nM.

The half-life is how long it takes for the measured level to halve. For orientation: IC50 means the concentration needed to halve the response being measured. Lower therefore signals greater potency.

For the origin of these results see patent US12606520B2, “Calpain-2 inhibitor compounds and methods of treatment” (WESTERN UNIVERSITY OF HEALTH SCIENCES, priority 2020, dated 2026).
